What was measured:
Assay type in all cases: biochemical
[1] = target: α-D-glucosidase (human lysosome) (Homo sapiens, UniProt P10253); experiment: Glycosidase inhibition, Table 6 footnote
panel of 15 glycosidases = experiment: Glycosidase inhibition, whole panel of Table 6; conditions: at 100 or 1000 μM
Description: The enzymes α-D-glucosidase (from yeast), β-D-glucosidases (from almond and bovine liver), α-D-galactosidase (from coffee beans), β-D-galactosidase (from bovine liver), α-D-mannosidase (from Jack bean), β-D-mannosidase (from snail), α-L-rhamnosidase (from Penicillium decumbens), α-L-fucosidase (from bovine kidney), trehalase (from porcine kidney), β-D-glucuronidases (from E. coli and bovine liver), amyloglucosidase (from A. niger), para-nitrophenyl glycosides, and various disaccharides were purchased from Sigma-Aldrich Co. (St. Louis, MO, USA).
Brush border membranes were prepared from the rat small intestine according to the method of Kessler et al., and were assayed at pH 6.8 for rat intestinal maltase using maltose. For rat intestinal maltase, porcine kidney trehalase, and A. niger amyloglucosidase activities, the reaction mixture contained maltose (25 mM) and the appropriate amount of enzyme, and the incubations were performed for 10–30 min at 37 °C. The reaction was stopped by heating at 100 °C for 3 min. […] The absorbance at 505 nm was measured to determine the amount of the released D-glucose. Other glycosidase activities were determined using an appropriate para-nitrophenyl glycoside as substrate at the optimum pH of each enzyme. […] The released para-nitrophenol was measured spectrometrically at 400 nm. […]

[2] = target: β-D-glucosidase (human lysosome) (Homo sapiens, UniProt P04062); experiment: Glycosidase inhibition, Table 6 footnote
β-D-glucosidase (human lysosome), sequence (P04062 40-536): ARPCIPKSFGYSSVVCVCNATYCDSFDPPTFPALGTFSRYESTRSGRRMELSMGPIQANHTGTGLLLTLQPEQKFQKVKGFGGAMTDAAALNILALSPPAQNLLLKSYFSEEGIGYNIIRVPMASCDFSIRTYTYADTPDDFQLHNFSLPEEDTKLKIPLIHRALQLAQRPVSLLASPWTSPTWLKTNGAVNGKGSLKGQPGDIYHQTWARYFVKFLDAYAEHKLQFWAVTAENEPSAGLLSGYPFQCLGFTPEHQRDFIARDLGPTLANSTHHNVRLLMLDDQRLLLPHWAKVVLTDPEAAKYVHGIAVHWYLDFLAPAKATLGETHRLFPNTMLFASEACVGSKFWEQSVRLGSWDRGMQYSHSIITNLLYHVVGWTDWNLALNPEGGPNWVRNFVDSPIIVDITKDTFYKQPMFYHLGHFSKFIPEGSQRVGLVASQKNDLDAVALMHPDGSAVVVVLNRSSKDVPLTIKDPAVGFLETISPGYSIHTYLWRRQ

[3] = tested on: N-acetyl-β-D-hexosaminidase (rat intestine); experiment: Glycosidase inhibition, Table 7; conditions: 1 mg/mL aqueous solution added, 27 °C, run in water
[4] = tested on: α-D-glucosidase (rat intestine); experiment: Glycosidase inhibition, Table 7; conditions: 1 mg/mL aqueous solution added, 27 °C, run in water
[5] = target: β-D-galactosidase (E. coli) (Escherichia coli, UniProt P00722); experiment: Glycosidase inhibition, Table 6 footnote; conditions: read-out: β-D-galactosidase (E. coli), inhibition % at 100 μM
β-D-galactosidase (E. coli), sequence (P00722 2-1024): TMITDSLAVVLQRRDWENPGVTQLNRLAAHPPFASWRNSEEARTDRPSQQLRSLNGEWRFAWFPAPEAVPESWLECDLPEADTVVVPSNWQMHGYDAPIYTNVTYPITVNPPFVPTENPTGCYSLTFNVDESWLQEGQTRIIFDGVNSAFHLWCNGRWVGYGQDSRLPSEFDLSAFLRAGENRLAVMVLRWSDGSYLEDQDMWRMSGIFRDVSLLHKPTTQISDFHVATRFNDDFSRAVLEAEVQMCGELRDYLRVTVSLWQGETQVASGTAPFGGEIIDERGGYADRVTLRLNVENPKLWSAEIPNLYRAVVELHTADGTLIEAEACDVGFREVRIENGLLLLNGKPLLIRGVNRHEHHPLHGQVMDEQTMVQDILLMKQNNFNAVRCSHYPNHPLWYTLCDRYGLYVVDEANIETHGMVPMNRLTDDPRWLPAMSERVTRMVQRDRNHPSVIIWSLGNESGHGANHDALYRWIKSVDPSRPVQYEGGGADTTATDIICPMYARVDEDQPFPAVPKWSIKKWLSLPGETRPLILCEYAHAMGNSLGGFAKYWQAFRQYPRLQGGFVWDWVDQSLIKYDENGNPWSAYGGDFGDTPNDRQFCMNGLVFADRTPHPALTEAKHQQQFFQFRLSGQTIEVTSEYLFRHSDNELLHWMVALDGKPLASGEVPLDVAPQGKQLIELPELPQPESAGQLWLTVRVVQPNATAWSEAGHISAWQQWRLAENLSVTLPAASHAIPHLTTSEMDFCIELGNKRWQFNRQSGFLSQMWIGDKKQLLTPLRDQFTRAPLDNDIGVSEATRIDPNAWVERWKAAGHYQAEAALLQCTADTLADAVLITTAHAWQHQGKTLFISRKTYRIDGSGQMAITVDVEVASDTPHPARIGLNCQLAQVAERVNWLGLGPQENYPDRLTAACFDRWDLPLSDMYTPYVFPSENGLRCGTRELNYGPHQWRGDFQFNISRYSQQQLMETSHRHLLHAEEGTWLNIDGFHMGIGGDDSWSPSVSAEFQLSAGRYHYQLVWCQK

[6] = tested on: α-D-glucosidase (Bacillus); experiment: Glycosidase inhibition, Table 7; conditions: 1 mg/mL aqueous solution added, 27 °C, run in water

## OC[C@H](O)[C@@H]1[C@H](O)[C@H](O)CN1Cc1ccccc1 [Compound 5, N-Benzyl-1,4-dideoxy-1,4-imino-L-gulitol]
[1]
  inhibition at 100 µM: 0%
Panel of 15 glycosidases
  percent inhibitions in the panel (Table 6): do not provide a strong degree of inhibition
[2]
  inhibition at 100 µM: 2.91%
[3]
  N-Acetyl-β-D-hexosaminidase Rat Intestine, percentage inhibition: −1.5%
[4]
  α-D-Glucosidase Rat Intestine, percentage inhibition: −1.3%
[5]
  inhibition at 100 µM: 0%

## CC1(C)O[C@H]2O[C@H]3[C@@H]([C@H]2O1)N(Cc1ccc(B2OC(C)(C)C(C)(C)O2)cc1)C[C@H]3O [para 6, N-(4-Methylphenylboronic acid pinacol ester)-3,6-dideoxy-3,6-imino-1,2-O-isopropylidene-α-D-gulofuranose]
Panel of 15 glycosidases
  percent inhibitions in the panel (Table 6): do not provide a strong degree of inhibition

## OB(O)c1ccc(CN2CC(O)C3OC(O)C(O)C32)cc1 [para 7, N-(4-Methylphenylboronic acid)-3,6-dideoxy-3,6-imino-D-gulofuranose]
[3]
  N-Acetyl-β-D-hexosaminidase Rat Intestine, percentage inhibition: 4.4%
[4]
  α-D-Glucosidase Rat Intestine, percentage inhibition: −5.4%

## OC[C@H](O)[C@@H]1[C@H](O)[C@H](O)CN1Cc1ccc(B(O)O)cc1 [para 8, N-(4-Methylphenylboronic acid)-1,4-dideoxy-1,4-imino-L-gulitol]
[3]
  N-Acetyl-β-D-hexosaminidase Rat Intestine, percentage inhibition: 2.6%

## N[C@@H](Cc1ccc(B(O)O)cc1)C(=O)O [^10B-BPA, reference compound]
[6]
  α-D-Glucosidase Bacillus, percentage inhibition: 19.5%

## borocaptate sodium [BSH, reference compound]
[6]
  α-D-Glucosidase Bacillus, percentage inhibition: 48.1%

## CC1(C)O[C@H]2O[C@H]3[C@@H]([C@H]2O1)N(Cc1ccccc1)C[C@H]3O [Compound 3, N-Benzyl-3,6-dideoxy-3,6-imino-1,2-O-isopropylidene-α-D-gulofuranose]
[6]
  α-D-Glucosidase Bacillus, percentage inhibition: −43.2%

## OC1O[C@@H]2[C@H]([C@H]1O)N(Cc1ccccc1)C[C@H]2O (stereo partly drawn) [Compound 4, N-Benzyl-3,6-dideoxy-3,6-imino-D-gulofuranose]
[6]
  α-D-Glucosidase Bacillus, percentage inhibition: −37.9%

## N[C@@H](Cc1ccc(B(O)O)cc1)C(=O)O [BPA, 4-borono-L-phenylalanine, reference compound]
[6]
  α-D-Glucosidase Bacillus, percentage inhibition: 19.9%

Source: PMC12472391, “Borylated Five-Membered Ring Iminosugars: Synthesis, Spectroscopic Analysis, and Biological Evaluation for Glycosidase Inhibition and Anticancer Properties for Application in Boron Neutron Capture Therapy (BNCT)—Part 1” (Pharmaceuticals, 2025)
